Activity calls are given as the source filed them. The calls are words filed in the database; no cut-off is given here.
Key:
Format in all cases: cell-based
[1] = target: T1, Toll-like receptor 9 (Homo sapiens) (UniProt Q9NR96); assay: […] at TLR9 in human THP1 cells assessed as inhibition of ODN2006-induced IL-8 secretion preincubated for 1 hr followed by ODN2006-stimulation and measured after 24 hrs by ELISA
T1 sequence (whole entry): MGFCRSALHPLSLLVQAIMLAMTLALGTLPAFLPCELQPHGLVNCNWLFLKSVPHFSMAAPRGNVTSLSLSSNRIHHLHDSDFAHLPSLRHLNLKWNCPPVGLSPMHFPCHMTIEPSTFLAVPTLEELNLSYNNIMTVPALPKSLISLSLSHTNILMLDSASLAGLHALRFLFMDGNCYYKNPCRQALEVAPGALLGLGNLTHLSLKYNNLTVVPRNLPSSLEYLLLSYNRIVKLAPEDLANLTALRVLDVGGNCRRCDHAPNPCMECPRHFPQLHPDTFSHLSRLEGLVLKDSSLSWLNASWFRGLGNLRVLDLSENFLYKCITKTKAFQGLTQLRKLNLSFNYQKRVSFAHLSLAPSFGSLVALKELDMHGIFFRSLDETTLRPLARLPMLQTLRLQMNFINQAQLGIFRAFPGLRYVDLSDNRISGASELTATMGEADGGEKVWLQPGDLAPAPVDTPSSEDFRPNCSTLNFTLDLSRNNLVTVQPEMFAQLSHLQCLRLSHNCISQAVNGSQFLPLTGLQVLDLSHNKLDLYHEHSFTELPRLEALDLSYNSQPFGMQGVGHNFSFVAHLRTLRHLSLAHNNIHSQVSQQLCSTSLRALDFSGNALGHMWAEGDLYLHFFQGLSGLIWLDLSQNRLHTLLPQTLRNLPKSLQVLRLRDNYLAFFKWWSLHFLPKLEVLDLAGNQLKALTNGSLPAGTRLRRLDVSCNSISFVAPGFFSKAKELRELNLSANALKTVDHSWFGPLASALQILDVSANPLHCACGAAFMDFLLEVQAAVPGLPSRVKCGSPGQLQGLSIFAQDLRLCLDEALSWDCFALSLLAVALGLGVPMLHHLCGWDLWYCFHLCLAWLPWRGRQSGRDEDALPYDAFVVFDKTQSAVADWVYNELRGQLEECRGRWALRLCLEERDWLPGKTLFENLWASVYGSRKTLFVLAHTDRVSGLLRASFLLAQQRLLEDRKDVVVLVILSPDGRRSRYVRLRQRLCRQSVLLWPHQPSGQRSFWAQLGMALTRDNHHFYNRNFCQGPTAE

[2] = target: Toll-like receptor 4 (Homo sapiens) (UniProt O00206); assay: […] at TLR4 in human THP1 cells assessed as inhibition of LPS-induced IL-8 secretion preincubated for 1 hr followed by LPS-stimulation and measured after 24 hrs by ELISA
Chain of Toll-like receptor 4 (Homo sapiens) (O00206 whole entry): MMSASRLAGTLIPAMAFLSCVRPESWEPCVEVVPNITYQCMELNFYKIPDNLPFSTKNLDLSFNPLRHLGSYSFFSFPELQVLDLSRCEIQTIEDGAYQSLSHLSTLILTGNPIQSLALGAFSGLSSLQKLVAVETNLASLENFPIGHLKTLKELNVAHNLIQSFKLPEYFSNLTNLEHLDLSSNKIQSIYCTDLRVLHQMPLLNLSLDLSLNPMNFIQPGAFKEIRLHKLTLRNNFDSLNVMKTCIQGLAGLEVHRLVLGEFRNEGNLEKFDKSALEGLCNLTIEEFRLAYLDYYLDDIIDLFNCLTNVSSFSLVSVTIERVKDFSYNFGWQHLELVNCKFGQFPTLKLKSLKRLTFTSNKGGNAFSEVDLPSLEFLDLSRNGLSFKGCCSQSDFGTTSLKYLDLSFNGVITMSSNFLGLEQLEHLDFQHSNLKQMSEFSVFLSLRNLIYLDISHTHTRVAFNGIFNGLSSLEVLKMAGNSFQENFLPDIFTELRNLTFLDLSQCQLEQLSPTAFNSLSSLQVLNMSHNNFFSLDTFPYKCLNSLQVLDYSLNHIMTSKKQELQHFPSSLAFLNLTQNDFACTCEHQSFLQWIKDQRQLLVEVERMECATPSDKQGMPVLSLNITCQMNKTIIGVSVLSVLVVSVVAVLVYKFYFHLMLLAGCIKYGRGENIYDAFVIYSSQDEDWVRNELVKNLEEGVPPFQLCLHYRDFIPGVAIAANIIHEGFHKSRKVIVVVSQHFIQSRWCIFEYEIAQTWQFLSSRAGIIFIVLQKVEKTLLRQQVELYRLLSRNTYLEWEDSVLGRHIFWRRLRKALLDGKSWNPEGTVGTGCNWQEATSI

Toll-like receptor 8 = target: T2, Toll-like receptor 8 (Homo sapiens, UniProt Q9NR97); assay: Antagonist activity at human TLR8 expressed in HEK-Blue cells assessed as inhibition of CL075-induced NF-kappaB activation incubated for 1 hr followed by CL075-stimulation and measured after 24 hrs by quanti-blue SEAP assay
T2 sequence (Q9NR97 whole entry): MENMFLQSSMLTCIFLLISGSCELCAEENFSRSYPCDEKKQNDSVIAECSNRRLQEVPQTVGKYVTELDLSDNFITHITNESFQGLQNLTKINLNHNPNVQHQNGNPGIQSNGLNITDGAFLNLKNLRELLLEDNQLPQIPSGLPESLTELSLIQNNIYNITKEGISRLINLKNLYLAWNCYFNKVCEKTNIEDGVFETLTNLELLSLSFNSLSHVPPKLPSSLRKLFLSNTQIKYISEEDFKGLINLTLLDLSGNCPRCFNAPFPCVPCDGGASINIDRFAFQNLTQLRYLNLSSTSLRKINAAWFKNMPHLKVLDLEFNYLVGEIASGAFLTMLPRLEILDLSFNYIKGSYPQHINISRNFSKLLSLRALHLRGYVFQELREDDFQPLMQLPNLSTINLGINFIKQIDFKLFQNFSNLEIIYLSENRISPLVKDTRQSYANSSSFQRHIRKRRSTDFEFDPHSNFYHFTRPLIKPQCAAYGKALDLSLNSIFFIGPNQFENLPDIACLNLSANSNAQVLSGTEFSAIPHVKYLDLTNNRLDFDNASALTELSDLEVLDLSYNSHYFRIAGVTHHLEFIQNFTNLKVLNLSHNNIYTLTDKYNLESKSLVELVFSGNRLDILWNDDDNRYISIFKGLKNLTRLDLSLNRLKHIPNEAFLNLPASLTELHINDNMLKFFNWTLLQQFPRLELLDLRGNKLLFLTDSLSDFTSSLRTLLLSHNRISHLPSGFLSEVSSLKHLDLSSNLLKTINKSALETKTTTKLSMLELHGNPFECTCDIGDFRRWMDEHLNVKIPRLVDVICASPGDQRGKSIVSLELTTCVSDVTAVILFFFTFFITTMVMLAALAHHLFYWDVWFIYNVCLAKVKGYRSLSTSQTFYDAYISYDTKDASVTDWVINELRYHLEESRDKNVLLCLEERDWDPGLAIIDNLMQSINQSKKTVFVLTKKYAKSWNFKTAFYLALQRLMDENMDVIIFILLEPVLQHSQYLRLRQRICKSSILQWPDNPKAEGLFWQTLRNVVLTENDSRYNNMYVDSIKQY

[3] = target: Toll-like receptor 5 (Homo sapiens) (UniProt O60602); assay: […] at TLR5 in human THP1 cells assessed as inhibition of flagellin-induced IL-8 secretion preincubated for 1 hr followed by flagellin stimulation and measured after 24 hrs by ELISA
Chain of Toll-like receptor 5 (Homo sapiens) (O60602 whole entry): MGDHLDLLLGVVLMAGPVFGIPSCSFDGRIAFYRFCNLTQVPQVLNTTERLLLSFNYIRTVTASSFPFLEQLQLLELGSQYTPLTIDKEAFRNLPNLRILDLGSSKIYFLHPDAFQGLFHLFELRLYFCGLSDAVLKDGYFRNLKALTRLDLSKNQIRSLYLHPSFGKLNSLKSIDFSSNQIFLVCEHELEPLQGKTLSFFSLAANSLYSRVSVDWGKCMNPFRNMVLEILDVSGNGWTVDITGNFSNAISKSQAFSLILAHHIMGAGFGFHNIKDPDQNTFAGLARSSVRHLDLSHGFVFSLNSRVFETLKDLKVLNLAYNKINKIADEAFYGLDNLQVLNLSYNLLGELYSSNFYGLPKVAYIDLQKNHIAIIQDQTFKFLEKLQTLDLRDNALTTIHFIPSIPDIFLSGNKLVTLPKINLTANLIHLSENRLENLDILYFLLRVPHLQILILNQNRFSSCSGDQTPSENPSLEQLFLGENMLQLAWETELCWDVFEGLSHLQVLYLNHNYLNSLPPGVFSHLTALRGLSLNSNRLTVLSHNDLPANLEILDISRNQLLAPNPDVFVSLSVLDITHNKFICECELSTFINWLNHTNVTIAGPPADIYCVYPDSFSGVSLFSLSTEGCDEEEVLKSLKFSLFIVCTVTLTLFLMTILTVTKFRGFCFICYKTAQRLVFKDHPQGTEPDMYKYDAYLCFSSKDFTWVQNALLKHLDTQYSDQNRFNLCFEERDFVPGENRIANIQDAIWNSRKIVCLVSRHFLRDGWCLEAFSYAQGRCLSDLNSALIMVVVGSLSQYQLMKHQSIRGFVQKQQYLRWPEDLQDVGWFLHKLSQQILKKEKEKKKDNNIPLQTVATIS

inhibition [1]	inhibition [2]	IC50 (Toll-like receptor 8) [µM]	inhibition [3]	SMILES
inactive	inactive	9.2	inactive	FC(F)(F)c1cc(-c2ccco2)nc(NCc2cccs2)n1
inactive	inactive	20	inactive	FC(F)(F)c1cc(-c2ccccc2)nc(NCc2cccs2)n1
inactive	inactive	35.5	inactive	CCCCNc1nc(-c2cccs2)cc(C(F)(F)F)n1

From ChEMBL document CHEMBL4304775, “Identification and characterization of a novel chemotype for human TLR8 inhibitors” (Eur J Med Chem, 2019)
